pIC50: −log10 of the molar value. Some results are limits rather than exact numbers.

A word on the pIC50: it is −log10 of the IC50, conventionally taken in molar units. A low value points to a high IC50.

In this experiment the target is Human thrombin (Homo sapiens (Human), UniProt P00734). Briefly: Thrombin protease activity inhibition assay (chromogenic substrate S-2238). Type of experiment: biochemical. Particulars: 3 nM thrombin, 125 μM S-2238, 10 min pre-incubation, RT. The method in brief:
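Thrombin at 3 nM final in 0.05 M Tris pH 7.4, 0.015 M NaCl, 0.01% PEG-8000, at room temperature; compounds as ten-point three-fold dilutions.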
`O=c1c(-c2cc(NCc3ccc(Cl)s3)[nH]n2)cccn1Cc1ccco1` [Cmpd 222, 3-(5-[(5-chlorothiophen-2-yl)methyl]amino-1H-pyrazol-3-yl)-1-(furan-2-ylmethyl)-1,2-dihydropyridin-2-one] showed a pIC50 of less than 4.00. As to `O=c1c(-c2cc(NCc3ccc(Cl)s3)[nH]n2)cccn1Cc1ccoc1` [Cmpd 223, 3-(5-[(5-chlorothiophen-2-yl)methyl]amino-1H-pyrazol-3-yl)-1-(furan-3-ylmethyl)-1,2-dihydropyridin-2-one], the pIC50 is 5.00 to 6.00. For `O=c1c(-c2cc(NCc3ccc(Cl)s3)[nH]n2)cccn1Cc1cccc2ccccc12` [Cmpd 224, 3-(5-[(5-chlorothiophen-2-yl)methyl]amino-1H-pyrazol-3-yl)-1-(naphthalen-1-ylmethyl)-1,2-dihydropyridin-2-one], the pIC50 was less than 4.00. `O=c1c(-c2cc(NCc3ccc(Cl)s3)[nH]n2)cccn1Cc1ccc2ccccc2c1` [Cmpd 225, 3-(5-[(5-chlorothiophen-2-yl)methyl]amino-1H-pyrazol-3-yl)-1-(naphthalen-2-ylmethyl)-1,2-dihydropyridin-2-one] showed a pIC50 of less than 4.00. On to `O=c1c(-c2cc(NCc3ccc(Cl)s3)[nH]n2)cccn1Cc1cccnn1` [Cmpd 226, 3-(5-[(5-chlorothiophen-2-yl)methyl]amino-1H-pyrazol-3-yl)-1-(pyridazin-3-ylmethyl)-1,2-dihydropyridin-2-one], for which the pIC50 is 4.00 to 5.00. As for `O=c1c(-c2cc(NCc3ccc(Cl)s3)n[nH]2)cccn1Cc1cccnc1` [Cmpd 228, 3-(5-[(5-chlorothiophen-2-yl)methyl]amino-1H-pyrazol-3-yl)-1-(pyridin-3-ylmethyl)-1,2-dihydropyridin-2-one], the figure is 5.00 to 6.00; as for `O=c1c(-c2cc(NCc3ccc(Cl)s3)[nH]n2)cccn1Cc1ncccn1` [Cmpd 230, 3-(5-[(5-chlorothiophen-2-yl)methyl]amino-1H-pyrazol-3-yl)-1-(pyrimidin-2-ylmethyl)-1,2-dihydropyridin-2-one], less than 4.00; as for `O=c1c(-c2cc(NCc3ccc(Cl)s3)n[nH]2)cccn1Cc1cccs1` [Cmpd 231, 3-(5-[(5-chlorothiophen-2-yl)methyl]amino-1H-pyrazol-3-yl)-1-(thiophen-2-ylmethyl)-1,2-dihydropyridin-2-one], 5.00 to 6.00. Compound `O=c1c(-c2cc(NCc3ccc(Cl)s3)[nH]n2)cccn1Cc1ccsc1` [Cmpd 232, 3-(5-[(5-chlorothiophen-2-yl)methyl]amino-1H-pyrazol-3-yl)-1-(thiophen-3-ylmethyl)-1,2-dihydropyridin-2-one] had a pIC50 of 5.00 to 6.00.

In the case of `O=C(Cn1cccc(-c2cc(NCc3ccc(Cl)s3)n[nH]2)c1=O)N1CCOCC1` [Cmpd 233, 3-(5-[(5-chlorothiophen-2-yl)methyl]amino-1H-pyrazol-3-yl)-1-[2-(morpholin-4-yl)-2-oxoethyl]-1,2-dihydropyridin-2-one], the pIC50 was 5.00 to 6.00. For the compound `O=c1c(-c2cc(NCc3ccc(Cl)s3)[nH]n2)cccn1CCN1CCOCC1` [Cmpd 234, 3-(5-[(5-chlorothiophen-2-yl)methyl]amino-1H-pyrazol-3-yl)-1-[2-(morpholin-4-yl)ethyl]-1,2-dihydropyridin-2-one], the pIC50 was 4.00 to 5.00. For the compound `Cn1cccc(-c2cc(NCc3ccc(Cl)s3)n[nH]2)c1=O` [Cmpd 236, 3-(5-[(5-chlorothiophen-2-yl)methyl]amino-1H-pyrazol-3-yl)-1-methyl-1,2-dihydropyridin-2-one], the pIC50 was 4.00 to 5.00. `CN(C)c1cc(-c2ccc[nH]c2=O)nn1C(=O)c1ccco1` [Cmpd 239, 3-[5-(dimethylamino)-1-[(furan-2-yl)carbonyl]-1H-pyrazol-3-yl]-1,2-dihydropyridin-2-one] gave a pIC50 of less than 4.00. In turn, `CN(C)c1cc(-c2cccn(Cc3ccccn3)c2=O)nn1C(=O)c1ccco1` [Cmpd 240, 3-[5-(dimethylamino)-1-[(furan-2-yl)carbonyl]-1H-pyrazol-3-yl]-1-(pyridin-2-ylmethyl)-1,2-dihydropyridin-2-one] had a negative logarithm of the IC50 (pIC50) of less than 4.00. On to `Nc1ccccc1C(=O)n1nc(-c2ccc[nH]c2=O)cc1NCc1ccc(Cl)s1` [Cmpd 241, 3-1-[(2-aminophenyl)carbonyl]-5-[(5-chlorothiophen-2-yl)methyl]amino-1H-pyrazol-3-yl-1,2-dihydropyridin-2-one], for which the negative-log IC50 (pIC50) was more than 7.00. In turn, `O=C(c1ccccc1Cl)n1nc(-c2cccn(Cc3cccnn3)c2=O)cc1NCc1ccc(Cl)s1` [Cmpd 245, 3-1-[(2-chlorophenyl)carbonyl]-5-[(5-chlorothiophen-2-yl)methyl]amino-1H-pyrazol-3-yl-1-(pyridazin-3-ylmethyl)-1,2-dihydropyridin-2-one] had a pIC50 of more than 7.00.

Regarding `O=C(c1ccccc1Cl)n1nc(-c2cccn(Cc3ccccn3)c2=O)cc1NCc1ccc(Cl)s1` [Cmpd 246, 3-1-[(2-chlorophenyl)carbonyl]-5-[(5-chlorothiophen-2-yl)methyl]amino-1H-pyrazol-3-yl-1-(pyridin-2-ylmethyl)-1,2-dihydropyridin-2-one], the pIC50 is more than 7.00. With `O=C(c1ccccc1Cl)n1nc(-c2cccn(Cc3ncccn3)c2=O)cc1NCc1ccc(Cl)s1` [Cmpd 249, 3-1-[(2-chlorophenyl)carbonyl]-5-[(5-chlorothiophen-2-yl)methyl]amino-1H-pyrazol-3-yl-1-(pyrimidin-2-ylmethyl)-1,2-dihydropyridin-2-one], the pIC50 is more than 7.00. Turning to `O=C(c1ccccc1Cl)n1nc(-c2cccn(Cc3cccs3)c2=O)cc1NCc1ccc(Cl)s1` [Cmpd 250, 3-1-[(2-chlorophenyl)carbonyl]-5-[(5-chlorothiophen-2-yl)methyl]amino-1H-pyrazol-3-yl-1-(thiophen-2-ylmethyl)-1,2-dihydropyridin-2-one], the pIC50 is more than 7.00.

`O=C(c1ccccc1Cl)n1nc(-c2cccn(Cc3ccsc3)c2=O)cc1NCc1ccc(Cl)s1` [Cmpd 251, 3-1-[(2-chlorophenyl)carbonyl]-5-[(5-chlorothiophen-2-yl)methyl]amino-1H-pyrazol-3-yl-1-(thiophen-3-ylmethyl)-1,2-dihydropyridin-2-one] showed a pIC50 of more than 7.00. `O=C(c1ccccc1Cl)n1nc(-c2cccn(CCN3CCOCC3)c2=O)cc1NCc1ccc(Cl)s1` [Cmpd 252, 3-1-[(2-chlorophenyl)carbonyl]-5-[(5-chlorothiophen-2-yl)methyl]amino-1H-pyrazol-3-yl-1-[2-(morpholin-4-yl)ethyl]-1,2-dihydropyridin-2-one]: the pIC50 is more than 7.00.

In turn, `CC(C)(C)c1ccc(C(=O)n2nc(-c3ccc[nH]c3=O)cc2NCc2ccc(Cl)s2)cc1` [Cmpd 253, 3-1-[(4-tert-butylphenyl)carbonyl]-5-[(5-chlorothiophen-2-yl)methyl]amino-1H-pyrazol-3-yl-1,2-dihydropyridin-2-one] showed a pIC50 of more than 7.00. As for `Cn1cccc(-c2cc(NCc3ccc(Cl)s3)n(C(=O)c3ccc(C(C)(C)C)cc3)n2)c1=O` [Cmpd 254, 3-1-[(4-tert-butylphenyl)carbonyl]-5-[(5-chlorothiophen-2-yl)methyl]amino-1H-pyrazol-3-yl-1-methyl-1,2-dihydropyridin-2-one], the figure is more than 7.00; as for `Nc1cc(-c2ccc[nH]c2=O)nn1C(=O)c1ccco1` [Cmpd 255, 3-5-amino-1-[(furan-2-yl)carbonyl]-1H-pyrazol-3-yl-1,2-dihydropyridin-2-one], 5.00 to 6.00; as for `Nc1cc(-c2cccn(Cc3ccccn3)c2=O)nn1C(=O)c1ccco1` [Cmpd 256, 3-5-amino-1-[(furan-2-yl)carbonyl]-1H-pyrazol-3-yl-1-(pyridin-2-ylmethyl)-1,2-dihydropyridin-2-one], 5.00 to 6.00.

`CCOC(=O)Cn1cccc(-c2cc(NCc3ccc(Cl)s3)n(C(=O)C(C)(C)C)n2)c1=O` [Cmpd 257, ethyl 2-[3-(5-[(5-chlorothiophen-2-yl)methyl]amino-1-(2,2-dimethylpropanoyl)-1H-pyrazol-3-yl)-2-oxo-1,2-dihydropyridin-1-yl]acetate] showed a pIC50 of more than 7.00. As for `CCOC(=O)Cn1cccc(-c2cc(NCc3ccc(Cl)s3)n(C(=O)c3ccccc3OC)n2)c1=O` [Cmpd 258, ethyl 2-[3-(5-[(5-chlorothiophen-2-yl)methyl]amino-1-[(2-methoxyphenyl)carbonyl]-1H-pyrazol-3-yl)-2-oxo-1,2-dihydropyridin-1-yl]acetate], the figure is more than 7.00.

`CCOC(=O)Cn1cccc(-c2cc(NCc3ccc(Cl)s3)n(C(=O)c3ccoc3)n2)c1=O` [Cmpd 259, ethyl 2-[3-(5-[(5-chlorothiophen-2-yl)methyl]amino-1-[(furan-3-yl)carbonyl]-1H-pyrazol-3-yl)-2-oxo-1,2-dihydropyridin-1-yl]acetate] had a pIC50 of more than 7.00. `CCOC(=O)Cn1cccc(-c2cc(NCc3ccc(Cl)s3)n[nH]2)c1=O` [Cmpd 260, ethyl 2-[3-(5-[(5-chlorothiophen-2-yl)methyl]amino-1H-pyrazol-3-yl)-2-oxo-1,2-dihydropyridin-1-yl]acetate] showed a pIC50 of 4.00 to 5.00. `CC(C)(C)OC(=O)Cn1cccc(-c2cc(NCc3ccc(Cl)s3)n(C(=O)C(C)(C)C)n2)c1=O` [Cmpd 261, tert-butyl 2-[3-(5-[(5-chlorothiophen-2-yl)methyl]amino-1-(2,2-dimethylpropanoyl)-1H-pyrazol-3-yl)-2-oxo-1,2-dihydropyridin-1-yl]acetate] had a pIC50 of more than 7.00. Turning to `COc1ccccc1C(=O)n1nc(-c2cccn(CC(=O)OC(C)(C)C)c2=O)cc1NCc1ccc(Cl)s1` [Cmpd 262, tert-butyl 2-[3-(5-[(5-chlorothiophen-2-yl)methyl]amino-1-[(2-methoxyphenyl)carbonyl]-1H-pyrazol-3-yl)-2-oxo-1,2-dihydropyridin-1-yl]acetate], the pIC50 was more than 7.00. `CC(C)(C)OC(=O)Cn1cccc(-c2cc(NCc3ccc(Cl)s3)n(C(=O)c3ccoc3)n2)c1=O` [Cmpd 263, tert-butyl 2-[3-(5-[(5-chlorothiophen-2-yl)methyl]amino-1-[(furan-3-yl)carbonyl]-1H-pyrazol-3-yl)-2-oxo-1,2-dihydropyridin-1-yl]acetate] had a pIC50 of more than 7.00.

The values are drawn from patent US9687479B2, “Multisubstituted aromatic compounds as serine protease inhibitors” (VERSEON CORPORATION, priority 2013, dated 2017).
